From PubChem BioAssay AID1963830 (Molecular Pharmacology Branch, DTP, NCI, 2024)

Test system: 922993-354-T-J3-PDC complex spheroid viability
Experiment: Anticancer human tumor 922993-354-T-J3-PDC patient-derived endometrial carcinoma cell line growth inhibition [POLQ]
Details: for IC50: curve of first compound; for viability, T/C: stronger effect = lower value
How it was run: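 PDC + HUVEC + MSC complex spheroids; POLQ inhibitors ± partner drugs; top conc. at/near clinical Cmax, else 10 microM (SN-38 1 microM), half-log dilutions; 37 degrees C, 5% CO2.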

[1] = second compound 0.0316 µM, first compound 0.0316 µM
[2] = second compound 0.0316 µM, first compound 0.1 µM
[3] = second compound 0.0316 µM, first compound 0.316 µM
[4] = second compound 0.0316 µM, first compound 1 µM
[5] = second compound 0.0316 µM, first compound 3.16 µM
[6] = second compound 0.0316 µM, first compound 10 µM
[7] = second compound 0.1 µM, first compound 0.0316 µM
[8] = second compound 0.1 µM, first compound 0.1 µM
[9] = second compound 0.1 µM, first compound 0.316 µM
[10] = second compound 0.1 µM, first compound 1 µM
[11] = second compound 0.1 µM, first compound 3.16 µM
[12] = second compound 0.1 µM, first compound 10 µM
[13] = second compound 0.316 µM, first compound 0.0316 µM
[14] = second compound 0.316 µM, first compound 0.1 µM
[15] = second compound 0.316 µM, first compound 0.316 µM
[16] = second compound 0.316 µM, first compound 1 µM
[17] = second compound 0.316 µM, first compound 3.16 µM
[18] = second compound 0.316 µM, first compound 10 µM
[19] = second compound 1 µM, first compound 0.0316 µM
[20] = second compound 1 µM, first compound 0.1 µM
[21] = second compound 1 µM, first compound 0.316 µM
[22] = second compound 1 µM, first compound 1 µM
[23] = second compound 1 µM, first compound 3.16 µM
[24] = second compound 1 µM, first compound 10 µM
[25] = second compound 3.16 µM, first compound 0.0316 µM
[26] = second compound 3.16 µM, first compound 0.1 µM
[27] = second compound 3.16 µM, first compound 0.316 µM
[28] = second compound 3.16 µM, first compound 1 µM
[29] = second compound 3.16 µM, first compound 3.16 µM
[30] = second compound 3.16 µM, first compound 10 µM
[31] = second compound 10 µM, first compound 0.0316 µM
[32] = second compound 10 µM, first compound 0.1 µM
[33] = second compound 10 µM, first compound 0.316 µM
[34] = second compound 10 µM, first compound 1 µM
[35] = second compound 10 µM, first compound 3.16 µM
[36] = second compound 10 µM, first compound 10 µM
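Also: spheroids exposed to the agents for one week.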
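For viability, T/C in this document: 100% = DMSO vehicle control wells.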

Work on `CC(=O)O[C@H]1C(=O)[C@@]2(C)[C@H]([C@H](OC(=O)c3ccccc3)[C@]3(O)C[C@H](OC(=O)[C@H](O)[C@@H](NC(=O)c4ccccc4)c4ccccc4)C(C)=C1C3(C)C)[C@]1(OC(C)=O)CO[C@@H]1C[C@@H]2O` + Nc1ccc(C#CCN(C(=O)Cc2ncc(C(F)(F)F)cc2C(F)(F)F)c2ccc(F)cc2)nn1 yielded an IC50 (second compound 0.0316 µM) of over 3 µM, an IC50 (second compound 0.1 µM) of over 3 µM and an IC50 (second compound 0.316 µM) of over 3 µM. The IC50 (second compound 1 µM) was over 3 µM, the IC50 (second compound 3.16 µM) was over 3 µM and the IC50 (second compound 10 µM) was over 3 µM. For the same molecule, the viability, T/C (second compound 0.0316 µM, first compound 0.00949 µM) was 105%, the viability, T/C (second compound 0.0316 µM, first compound 0.03 µM) was 107% and the viability, T/C (second compound 0.0316 µM, first compound 0.0949 µM) was 102%. It also gave a viability, T/C (second compound 0.0316 µM, first compound 0.3 µM) of 105%, a viability, T/C (second compound 0.0316 µM, first compound 0.949 µM) of 99% and a viability, T/C (second compound 0.0316 µM, first compound 3 µM) of 73.4%. For the same molecule, the viability, T/C (second compound 0.1 µM, first compound 0.00949 µM) was 105%, the viability, T/C (second compound 0.1 µM, first compound 0.03 µM) was 106% and the viability, T/C (second compound 0.1 µM, first compound 0.0949 µM) was 106%. For the same molecule, the viability, T/C (second compound 0.1 µM, first compound 0.3 µM) was 106%, the viability, T/C (second compound 0.1 µM, first compound 0.949 µM) was 99.9% and the viability, T/C (second compound 0.1 µM, first compound 3 µM) was 72.4%. The viability, T/C (second compound 0.316 µM, first compound 0.00949 µM) was 107%, the viability, T/C (second compound 0.316 µM, first compound 0.03 µM) was 107% and the viability, T/C (second compound 0.316 µM, first compound 0.0949 µM) was 104%. For the same molecule, the viability, T/C (second compound 0.316 µM, first compound 0.3 µM) was 103%, the viability, T/C (second compound 0.316 µM, first compound 0.949 µM) was 96.6% and the viability, T/C (second compound 0.316 µM, first compound 3 µM) was 78.1%. The viability, T/C (second compound 1 µM, first compound 0.00949 µM) was 107%, the viability, T/C (second compound 1 µM, first compound 0.03 µM) was 100% and the viability, T/C (second compound 1 µM, first compound 0.0949 µM) was 104%. It also gave a viability, T/C (second compound 1 µM, first compound 0.3 µM) of 107%, a viability, T/C (second compound 1 µM, first compound 0.949 µM) of 91.7% and a viability, T/C (second compound 1 µM, first compound 3 µM) of 71.4%. The viability, T/C (second compound 3.16 µM, first compound 0.00949 µM) was 101%, the viability, T/C (second compound 3.16 µM, first compound 0.03 µM) was 105% and the viability, T/C (second compound 3.16 µM, first compound 0.0949 µM) was 98.3%. For the same molecule, the viability, T/C (second compound 3.16 µM, first compound 0.3 µM) was 101%, the viability, T/C (second compound 3.16 µM, first compound 0.949 µM) was 83.7% and the viability, T/C (second compound 3.16 µM, first compound 3 µM) was 69.8%. For the same molecule, the viability, T/C (second compound 10 µM, first compound 0.00949 µM) was 90.6%, the viability, T/C (second compound 10 µM, first compound 0.03 µM) was 84.3% and the viability, T/C (second compound 10 µM, first compound 0.0949 µM) was 69.5%. It also gave a viability, T/C (second compound 10 µM, first compound 0.3 µM) of 69.8%, a viability, T/C (second compound 10 µM, first compound 0.949 µM) of 60.8% and a viability, T/C (second compound 10 µM, first compound 3 µM) of 54.8%.
In the case of `CC1COCCN1c1cc(-c2ccnn2C)c2ccnc(-c3ccn[nH]3)c2n1` (stereo unspecified) + COC1C(OC(N)=O)C(O)C(Oc2ccc3c(O)c(NC(=O)c4ccc(O)c(CC=C(C)C)c4)c(=O)oc3c2C)OC1(C)C, the IC50 (second compound 0.0316 µM) is reported as 0.121 µM, the IC50 (second compound 0.1 µM) is reported as 0.185 µM and the IC50 (second compound 0.316 µM) is reported as 0.172 µM. For the same molecule, the IC50 (second compound 1 µM) was 0.152 µM, the IC50 (second compound 3.16 µM) was 0.143 µM and the IC50 (second compound 10 µM) was 0.117 µM. For the same molecule, the viability, T/C [1] was 83.5%, the viability, T/C [2] was 54.2% and the viability, T/C [3] was 27.8%. It also gave a viability, T/C [4] of 11.2%, a viability, T/C [5] of 10.4% and a viability, T/C [6] of 11.8%. The viability, T/C [7] was 94.4%, the viability, T/C [8] was 69.9% and the viability, T/C [9] was 33.7%. The viability, T/C [10] was 9.37%, the viability, T/C [11] was 8.43% and the viability, T/C [12] was 10.4%. For the same molecule, the viability, T/C [13] was 95.1%, the viability, T/C [14] was 68.4% and the viability, T/C [15] was 29.5%. The viability, T/C [16] was 12.7%, the viability, T/C [17] was 9.09% and the viability, T/C [18] was 11.2%. It also gave a viability, T/C [19] of 78.6%, a viability, T/C [20] of 55.4% and a viability, T/C [21] of 39.7%. It also gave a viability, T/C [22] of 10.2%, a viability, T/C [23] of 8.85% and a viability, T/C [24] of 10.6%. It also gave a viability, T/C [25] of 89.9%, a viability, T/C [26] of 60% and a viability, T/C [27] of 27.9%. It also gave a viability, T/C [28] of 9.41%, a viability, T/C [29] of 7.96% and a viability, T/C [30] of 11.8%. The viability, T/C [31] was 82%, the viability, T/C [32] was 53.3% and the viability, T/C [33] was 26.8%. The viability, T/C [34] was 8.03%, the viability, T/C [35] was 9.82% and the viability, T/C [36] was 10.7%.
`CNCc1ccc(-c2[nH]c3cc(F)cc4c3c2CCNC4=O)cc1` + Nc1ccc(C#CCN(C(=O)Cc2ncc(C(F)(F)F)cc2C(F)(F)F)c2ccc(F)cc2)nn1 was tested, and the IC50 (second compound 0.0316 µM) was over 10 µM, the IC50 (second compound 0.1 µM) was over 10 µM and the IC50 (second compound 0.316 µM) was over 10 µM. The IC50 (second compound 1 µM) was over 10 µM, the IC50 (second compound 3.16 µM) was over 10 µM and the IC50 (second compound 10 µM) was over 10 µM. For the same molecule, the viability, T/C [1] was 101%, the viability, T/C [2] was 98.2% and the viability, T/C [3] was 98.2%. It also gave a viability, T/C [4] of 97%, a viability, T/C [5] of 96.1% and a viability, T/C [6] of 90.5%. It also gave a viability, T/C [7] of 103%, a viability, T/C [8] of 99% and a viability, T/C [9] of 99.9%. The viability, T/C [10] was 101%, the viability, T/C [11] was 97.3% and the viability, T/C [12] was 92.5%. For the same molecule, the viability, T/C [13] was 97.3%, the viability, T/C [14] was 99.2% and the viability, T/C [15] was 97%. It also gave a viability, T/C [16] of 96%, a viability, T/C [17] of 102% and a viability, T/C [18] of 91.8%. It also gave a viability, T/C [19] of 104%, a viability, T/C [20] of 96.4% and a viability, T/C [21] of 94.7%. For the same molecule, the viability, T/C [22] was 102%, the viability, T/C [23] was 97.3% and the viability, T/C [24] was 94.9%. For the same molecule, the viability, T/C [25] was 97.3%, the viability, T/C [26] was 100% and the viability, T/C [27] was 101%. For the same molecule, the viability, T/C [28] was 93.9%, the viability, T/C [29] was 95.9% and the viability, T/C [30] was 89.6%. It also gave a viability, T/C [31] of 95.5%, a viability, T/C [32] of 96.9% and a viability, T/C [33] of 91.9%. It also gave a viability, T/C [34] of 93%, a viability, T/C [35] of 89.6% and a viability, T/C [36] of 69.9%.
